This is an account of results in US9839629B2, “Inhibitors of the renal outer medullary potassium channel” (Merck Sharp & Dohme Corp., priority 2013, dated 2017).

For the assay, the target named is T1, ROMK (Kir1.1) channel (Homo sapiens, UniProt P48048).
T1 sequence (P48048 1-391): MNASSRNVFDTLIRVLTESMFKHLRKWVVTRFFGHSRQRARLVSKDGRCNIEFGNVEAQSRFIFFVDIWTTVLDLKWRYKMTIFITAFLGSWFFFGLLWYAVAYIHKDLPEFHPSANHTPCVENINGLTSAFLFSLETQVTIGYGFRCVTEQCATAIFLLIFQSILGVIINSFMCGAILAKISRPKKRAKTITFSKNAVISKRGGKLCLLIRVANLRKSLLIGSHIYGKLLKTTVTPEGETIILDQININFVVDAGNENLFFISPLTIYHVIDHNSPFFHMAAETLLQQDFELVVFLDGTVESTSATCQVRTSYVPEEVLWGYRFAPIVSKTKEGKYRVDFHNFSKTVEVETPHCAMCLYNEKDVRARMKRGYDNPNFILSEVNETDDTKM
Briefly: Thallium Flux Assay. In kind it is cell-based. As to the method:
A Thallium Flux Assay was performed on each of the final product compounds in the Examples. When the final product of an Example was an HCl salt, the salt was run in the Assay. This assay has been described previously; see, e.g., PCT Published Application WO 2013/062900.
Take `CC1=C(N2CCC3(CCN(C[C@@H](O)c4ccc(-n5cnnn5)cc4C)CC3)CC2)COC1=O` [Example 56, (S)-4-(9-(2-hydroxy-2-(2-methyl-4-(1H-tetrazol-1-yl)phenyl)ethyl)-3,9-diazaspiro[5.5]undecan-3-yl)-3-methylfuran-2(5H)-one]: half-maximal inhibition (IC50) required 11 nM.
Then `CC1=C(N2CCC3(CC2)CCN([C@H](CO)c2ccc(-n4cnnn4)cc2C)CC3)COC1=O` [Example 57, (S)-4-(9-(2-hydroxy-1-(2-methyl-4-(1H-tetrazol-1-yl)phenyl)ethyl)-3,9-diazaspiro[5.5]undecan-3-yl)-3-methylfuran-2(5H)-one], with 232 nM.
Then `CC1=C(N2CCC3(CC2)CCN([C@@H](CO)c2ccc(-n4cnnn4)cc2C)CC3)COC1=O` [Example 58, (R)-4-(9-(2-hydroxy-1-(2-methyl-4-(1H-tetrazol-1-yl)phenyl)ethyl)-3,9-diazaspiro[5.5]undecan-3-yl)-3-methylfuran-2(5H)-one], with 256 nM; and `CC1=C(N2CCC3(CCN(C[C@H](O)c4cccc(-n5cnnn5)c4)CC3)CC2)COC1=O` [Example 59, (R)-4-(9-(2-(3-(1H-tetrazol-1-yl)phenyl)-2-hydroxyethyl)-3,9-diazaspiro[5.5]undecan-3-yl)-3-methylfuran-2(5H)-one], with 22 nM.
Then `CC1=C(N2CCC3(CCN(C[C@@H](O)c4cccc(-n5cnnn5)c4)CC3)CC2)COC1=O` [Example 60, (S)-4-(9-(2-(3-(1H-tetrazol-1-yl)phenyl)-2-hydroxyethyl)-3,9-diazaspiro[5.5]undecan-3-yl)-3-methylfuran-2(5H)-one], with 32 nM.
In turn, `CC1=C(N2CCC3(CCN(C[C@H](O)c4ccnc(-n5cnnn5)c4)CC3)CC2)COC1=O` [Example 61, (R)-4-(9-(2-(2-(1H-tetrazol-1-yl)pyridin-4-yl)-2-hydroxyethyl)-3,9-diazaspiro[5.5]undecan-3-yl)-3-methylfuran-2(5H)-one] displayed an IC50 of 33 nM.
Then `CC1=C(N2CCC3(CCN(C[C@@H](O)c4ccnc(-n5cnnn5)c4)CC3)CC2)COC1=O` [Example 62, (S)-4-(9-(2-(2-(1H-tetrazol-1-yl)pyridin-4-yl)-2-hydroxyethyl)-3,9-diazaspiro[5.5]undecan-3-yl)-3-methylfuran-2(5H)-one], with 39 nM; and `CC1=C(N2CCC3(CCN(C[C@H](O)c4cncc(-n5cnnn5)c4)CC3)CC2)COC1=O` [Example 63, (R)-4-(9-(2-(5-(1H-tetrazol-1-yl)pyridin-3-yl)-2-hydroxyethyl)-3,9-diazaspiro[5.5]undecan-3-yl)-3-methylfuran-2(5H)-one], with 196 nM.
Then `CC1=C(N2CCC3(CCN(C[C@@H](O)c4cncc(-n5cnnn5)c4)CC3)CC2)COC1=O` [Example 64, (S)-4-(9-(2-(5-(1H-tetrazol-1-yl)pyridin-3-yl)-2-hydroxyethyl)-3,9-diazaspiro[5.5]undecan-3-yl)-3-methylfuran-2(5H)-one], with 117 nM.
As to `CC1=C(N2CCC3(CCN(C[C@H](O)c4cncc(-n5cnnn5)n4)CC3)CC2)COC1=O` [Example 65, (S)-4-(9-(2-(6-(1H-tetrazol-1-yl)pyrazin-2-yl)-2-hydroxyethyl)-3,9-diazaspiro[5.5]undecan-3-yl)-3-methylfuran-2(5H)-one], the IC50 came to 109 nM.
Then `CC1=C(N2CCC3(CCN(C[C@@H](O)c4cncc(-n5cnnn5)n4)CC3)CC2)COC1=O` [Example 66, (R)-4-(9-(2-(6-(1H-tetrazol-1-yl)pyrazin-2-yl)-2-hydroxyethyl)-3,9-diazaspiro[5.5]undecan-3-yl)-3-methylfuran-2(5H)-one], with 110 nM; and `CC1=C(N2CCC3(CCN(C[C@H](O)c4cc(-n5cnnn5)ccn4)CC3)CC2)COC1=O` [Example 67, (S)-4-(9-(2-(4-(1H-tetrazol-1-yl)pyridin-2-yl)-2-hydroxyethyl)-3,9-diazaspiro[5.5]undecan-3-yl)-3-methylfuran-2(5H)-one], with 305 nM; and `CC1=C(N2CCC3(CCN(C[C@@H](O)c4cc(-n5cnnn5)ccn4)CC3)CC2)COC1=O` [Example 68, (R)-4-(9-(2-(4-(1H-tetrazol-1-yl)pyridin-2-yl)-2-hydroxyethyl)-3,9-diazaspiro[5.5]undecan-3-yl)-3-methylfuran-2(5H)-one], with 185 nM.
Compound `CC1=C(N2CCC3(CCN(C[C@@H](O)c4ccccc4-n4cnnn4)CC3)CC2)COC1=O` [Example 69, (S)-4-(9-(2-(2-(1H-tetrazol-1-yl)phenyl)-2-hydroxyethyl)-3,9-diazaspiro[5.5]undecan-3-yl)-3-methylfuran-2(5H)-one] gave an IC50 of 634 nM. This IC50 is about 3.4-fold higher than that of the compound before.
Then `Cc1nc(-n2cnnn2)ccc1[C@@H](O)CN1CCC2(CC1)CCN(C1=CC(=O)CC1)CC2` [Example 70, (R)-3-(9-(2-hydroxy-2-(2-methyl-6-(1H-tetrazol-1-yl)pyridin-3-yl)ethyl)-3,9-diazaspiro[5.5]undecan-3-yl)cyclopent-2-enone], with 49 nM; and `Cc1nc(-n2cnnn2)ccc1[C@H](O)CN1CCC2(CC1)CCN(C1=CC(=O)CC1)CC2` [Example 71, (S)-3-(9-(2-hydroxy-2-(2-methyl-6-(1H-tetrazol-1-yl)pyridin-3-yl)ethyl)-3,9-diazaspiro[5.5]undecan-3-yl)cyclopent-2-enone], with 243 nM.
Then `Cc1c([C@@H](O)CN2CCC3(CC2)CCN(C2=CC(=O)CC2)CC3)ccc2c1COC2=O` [Example 72, (R)-5-(1-hydroxy-2-(9-(3-oxocyclopent-1-en-1-yl)-3,9-diazaspiro[5.5]undecan-3-yl)ethyl)-4-methylisobenzofuran-1(3H)-one], with 439 nM.
Then `Cc1cc(-n2cnnn2)ccc1[C@@H](O)CN1CCC2(CC1)CCN(C1=CC(=O)CC1)CC2` [Example 73, (R)-3-(9-(2-hydroxy-2-(2-methyl-4-(1H-tetrazol-1-yl)phenyl)ethyl)-3,9-diazaspiro[5.5]undecan-3-yl)cyclopent-2-enone], with 179 nM.
For `CC1=C(N2CCC3(CCN(C[C@H](O)c4ccc(-n5cnnn5)nc4C)CC3)CC2)CCC1=O` [Example 74, (R)-3-(9-(2-hydroxy-2-(2-methyl-6-(1H-tetrazol-1-yl)pyridin-3-yl)ethyl)-3,9-diazaspiro[5.5]undecan-3-yl)-2-methylcyclopent-2-enone], 69 nM corresponded to half-maximal inhibition (IC50).
On to `CC1=C(N2CCC3(CCN(C[C@@H](O)c4ccc(-n5cnnn5)nc4C)CC3)CC2)CCC1=O` [Example 75, (S)-3-(9-(2-hydroxy-2-(2-methyl-6-(1H-tetrazol-1-yl)pyridin-3-yl)ethyl)-3,9-diazaspiro[5.5]undecan-3-yl)-2-methylcyclopent-2-enone], for which the midpoint of inhibition, the IC50, lay at 279 nM.
Then `CC1=C(N2CCC3(CCN(C[C@H](O)c4ccc5c(c4C)COC5=O)CC3)CC2)CCC1=O` [Example 76, (R)-5-(1-hydroxy-2-(9-(2-methyl-3-oxocyclopent-1-en-1-yl)-3,9-diazaspiro[5.5]undecan-3-yl)ethyl)-4-methylisobenzofuran-1(3H)-one], with 109 nM; and `CC1=C(N2CCC3(CCN(C[C@H](O)c4ccc(-n5cnnn5)cc4C)CC3)CC2)CCC1=O` [Example 77, (R)-3-(9-(2-hydroxy-2-(2-methyl-4-(1H-tetrazol-1-yl)phenyl)ethyl)-3,9-diazaspiro[5.5]undecan-3-yl)-2-methylcyclopent-2-enone], with 140 nM.
Then `Cc1c([C@@H](O)CN2CCC3(CC2)CCN(c2c(C)c(=O)c2=O)CC3)ccc2c1COC2=O` [Example 78, (R)-3-(9-(2-hydroxy-2-(4-methyl-1-oxo-1,3-dihydroisobenzofuran-5-yl)ethyl)-3,9-diazaspiro[5.5]undecan-3-yl)-4-methylcyclobut-3-ene-1,2-dione], with 30 nM.
Then `CCc1c(N2CCC3(CCN(C[C@H](O)c4ccc5c(c4C)COC5=O)CC3)CC2)c(=O)c1=O` [Example 79, (R)-3-ethyl-4-(9-(2-hydroxy-2-(4-methyl-1-oxo-1,3-dihydroisobenzofuran-5-yl)ethyl)-3,9-diazaspiro[5.5]undecan-3-yl)cyclobut-3-ene-1,2-dione], with 110 nM.
Regarding `Cc1c([C@@H](O)CN2CCC3(CC2)CCN(c2c(C4CC4)c(=O)c2=O)CC3)ccc2c1COC2=O` [Example 80, (R)-3-cyclopropyl-4-(9-(2-hydroxy-2-(4-methyl-1-oxo-1,3-dihydroisobenzofuran-5-yl)ethyl)-3,9-diazaspiro[5.5]undecan-3-yl)cyclobut-3-ene-1,2-dione], it took 141 nM to reach half-maximal inhibition (IC50).
Turning to `Cc1c(N2CCC3(CCN(C[C@H](O)c4ccc(-n5cnnn5)nc4)CC3)CC2)c(=O)c1=O` [Example 81, (R)-3-(9-(2-(6-(1H-tetrazol-1-yl)pyridin-3-yl)-2-hydroxyethyl)-3,9-diazaspiro[5.5]undecan-3-yl)-4-methylcyclobut-3-ene-1,2-dione], the 50% inhibitory concentration (IC50) was determined as 15 nM.
Then `Cc1c(N2CCC3(CCN(C[C@@H](O)c4ccc(-n5cnnn5)nc4)CC3)CC2)c(=O)c1=O` [Example 82, (S)-3-(9-(2-(6-(1H-tetrazol-1-yl)pyridin-3-yl)-2-hydroxyethyl)-3,9-diazaspiro[5.5]undecan-3-yl)-4-methylcyclobut-3-ene-1,2-dione], with 34 nM.
For `Cc1c(N2CCC3(CCN(C[C@H](O)c4ccc(-n5cnnn5)nn4)CC3)CC2)c(=O)c1=O` [Example 83, (S)-3-(9-(2-(6-(1H-tetrazol-1-yl)pyridazin-3-yl)-2-hydroxyethyl)-3,9-diazaspiro[5.5]undecan-3-yl)-4-methylcyclobut-3-ene-1,2-dione], the 50% inhibitory concentration (IC50) was determined as 317 nM.
